Source: PubChem BioAssay AID248 (DTP/NCI, 2004)
Values joined by “and” are separate entries in the source; they are usually repeats but may differ in a detail not shown here. Equal values may be shown once. Inconclusive results and toxic doses are left out. Cut-off read from the data, not from the text of the source: active = T/C of 150% or more; inactive = T/C below 125%.

System: L1210 leukemia ip in BDF1 mice, survival T/C
Test: NCI In Vivo Anticancer Drug Screen. Data for tumor model L1210 Leukemia (intraperitoneal) in B6D2F1 (BDF1) mice
Details: endpoint: mean survival time, higher = longer survival
Summary of the method: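 Transplanted-tumor mice were given test agent; controls received vehicle only. Survival readings from the two groups were divided (treated over control).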

[1] = dose: 100.0 mg/kg/injection, schedule: Q01DX001 (ip), vehicle: saline
[2] = dose: 200.0 mg/kg/injection, schedule: Q01DX001 (ip), vehicle: saline
[3] = dose: 400.0 mg/kg/injection, schedule: Q01DX001 (ip), vehicle: saline
[4] = dose: 50.0 mg/kg/injection, schedule: Q01DX001 (ip), vehicle: carboxymethylcellulose (CMC)
[5] = dose: 50.0 mg/kg/injection, schedule: Q01DX009 (ip), vehicle: Klucel (hydroxypropylcellulose) (HPC)
[6] = dose: 100.0 mg/kg/injection, schedule: Q01DX001 (ip), vehicle: carboxymethylcellulose (CMC)
[7] = dose: 100.0 mg/kg/injection, schedule: Q04DX003 (ip), vehicle: Klucel (hydroxypropylcellulose) (HPC)
[8] = dose: 200.0 mg/kg/injection, schedule: Q01DX001 (ip), vehicle: carboxymethylcellulose (CMC)
[9] = dose: 200.0 mg/kg/injection, schedule: Q04DX003 (ip), vehicle: Klucel (hydroxypropylcellulose) (HPC)
[10] = dose: 400.0 mg/kg/injection, schedule: Q01DX001 (ip), vehicle: carboxymethylcellulose (CMC)
[11] = dose: 400.0 mg/kg/injection, schedule: Q04DX003 (ip), vehicle: Klucel (hydroxypropylcellulose) (HPC)
[12] = dose: 100.0 mg/kg/injection, schedule: Q04DX003 (ip), vehicle: saline with Tween-80
[13] = dose: 200.0 mg/kg/injection, schedule: Q04DX003 (ip), vehicle: saline with Tween-80
[14] = dose: 100.0 mg/kg/injection, schedule: Q01DX009 (ip), vehicle: saline with Tween-80
[15] = dose: 200.0 mg/kg/injection, schedule: Q01DX009 (ip), vehicle: saline with Tween-80
[16] = dose: 400.0 mg/kg/injection, schedule: Q01DX009 (ip), vehicle: saline with Tween-80
[17] = dose: 400.0 mg/kg/injection, schedule: Q04DX003 (ip), vehicle: saline with Tween-80
[18] = dose: 100.0 mg/kg/injection, schedule: Q01DX009 (ip), vehicle: Klucel (hydroxypropylcellulose) (HPC)
[19] = dose: 200.0 mg/kg/injection, schedule: Q01DX009 (ip), vehicle: Klucel (hydroxypropylcellulose) (HPC)
[20] = dose: 400.0 mg/kg/injection, schedule: Q01DX009 (ip), vehicle: Klucel (hydroxypropylcellulose) (HPC)
[21] = dose: 100.0 mg/kg/injection, schedule: Q04DX002 (ip), vehicle: Klucel (hydroxypropylcellulose) (HPC)
[22] = dose: 200.0 mg/kg/injection, schedule: Q04DX002 (ip), vehicle: Klucel (hydroxypropylcellulose) (HPC)
[23] = dose: 400.0 mg/kg/injection, schedule: Q04DX002 (ip), vehicle: Klucel (hydroxypropylcellulose) (HPC)

Measured: T/C

Cc1ccc(C2(C)CC/C(=N\NC(=O)c3ccccc3)c3cc(C)c(C)cc32)cc1C (stereo not given)
inactive: [1] 97 % of control | [2] 98 % of control | [3] 104 % of control

CC(C)c1ccc(NC(=S)NC(=O)c2ccccc2)cc1
inactive: dose: 100.0 mg/kg/injection, schedule: Q04DX002 (ip), vehicle: gum acacia 103 % of control | dose: 200.0 mg/kg/injection, schedule: Q04DX002 (ip), vehicle: gum acacia 100 % of control | dose: 400.0 mg/kg/injection, schedule: Q04DX002 (ip), vehicle: gum acacia 92 % of control

COc1ccc2c(c1)C(CC(=O)O)=CC2
inactive: dose: 50.0 mg/kg/injection, schedule: Q01DX001 (ip), vehicle: saline 100 % of control | [1] 96 % of control | [2] 105 % of control | [3] 107 % of control

[Cl][Sb]([Cl])([c]1ccccc1)([c]1ccccc1)[c]1ccccc1
inactive: dose: 12.5 mg/kg/injection, schedule: Q01DX009 (ip), vehicle: Klucel (hydroxypropylcellulose) (HPC) 95 % of control | dose: 25.0 mg/kg/injection, schedule: Q01DX009 (ip), vehicle: Klucel (hydroxypropylcellulose) (HPC) 93 % of control | dose: 25.0 mg/kg/injection, schedule: Q04DX002 (ip), vehicle: saline with Tween-80 93 % of control | [4] 96 % of control | [5] 102 % of control and 91 % of control | dose: 50.0 mg/kg/injection, schedule: Q04DX002 (ip), vehicle: saline with Tween-80 97 % of control | [6] 96 % of control | dose: 100.0 mg/kg/injection, schedule: Q04DX002 (ip), vehicle: saline with Tween-80 101 % of control | [7] 102 % of control | [8] 114 % of control | [9] 96 % of control | [10] 93 % of control | [11] 105 % of control

O=c1[nH]nc(-c2ccc(Cl)c(Cl)c2)s1
inactive: dose: 75.0 mg/kg/injection, schedule: Q01DX001 (ip), vehicle: saline 95 % of control | dose: 75.0 mg/kg/injection, schedule: Q04DX003 (ip), vehicle: saline 95 % of control | dose: 150.0 mg/kg/injection, schedule: Q01DX001 (ip), vehicle: saline 92 % of control | dose: 150.0 mg/kg/injection, schedule: Q04DX003 (ip), vehicle: saline 95 % of control | dose: 300.0 mg/kg/injection, schedule: Q01DX001 (ip), vehicle: saline 92 % of control | dose: 300.0 mg/kg/injection, schedule: Q04DX003 (ip), vehicle: saline 96 % of control

Oc1c(Br)cc(Br)cc1C=Nc1ccc(I)cc1.Oc1c(Br)cc(Br)cc1C=Nc1ccc(I)cc1.[Co]
inactive: [12] 98 % of control | [13] 92 % of control

O=S(=O)(O)CCCBr
inactive: dose: 100.0 mg/kg/injection, schedule: Q04DX003 (ip), vehicle: acetone 96 % of control | dose: 200.0 mg/kg/injection, schedule: Q04DX003 (ip), vehicle: acetone 95 % of control | dose: 400.0 mg/kg/injection, schedule: Q04DX003 (ip), vehicle: acetone 87 % of control

CC1(C)Cc2cccc(OC(N)=O)c2O1
inactive: dose: 1.56 mg/kg/injection, schedule: Q04DX003 (ip), vehicle: Klucel (hydroxypropylcellulose) (HPC) 94 % of control | dose: 3.13 mg/kg/injection, schedule: Q04DX003 (ip), vehicle: Klucel (hydroxypropylcellulose) (HPC) 103 % of control | dose: 6.25 mg/kg/injection, schedule: Q04DX003 (ip), vehicle: Klucel (hydroxypropylcellulose) (HPC) 104 % of control

N=C(CN1CCCCC1)N1CCCCC1
inactive: dose: 100.0 mg/kg/injection, schedule: Q04DX002 (ip), vehicle: saline 104 % of control

c1ccc2sc(SN3CCOCC3)nc2c1
inactive: [14] 95 % of control | [12] 100 % of control | [15] 92 % of control | [13] 87 % of control | [16] 92 % of control | [17] 89 % of control

C[n+]1c(-c2ccccc2)c2ccccc2c2ccccc21
inactive: dose: 0.78 mg/kg/injection, schedule: Q01DX009 (ip), vehicle: water 91 % of control | dose: 1.56 mg/kg/injection, schedule: Q01DX009 (ip), vehicle: water 96 % of control | dose: 1.56 mg/kg/injection, schedule: Q04DX003 (ip), vehicle: water 103 % of control | dose: 3.12 mg/kg/injection, schedule: Q01DX009 (ip), vehicle: water 93 % of control | dose: 3.12 mg/kg/injection, schedule: Q04DX003 (ip), vehicle: water 97 % of control | dose: 6.25 mg/kg/injection, schedule: Q04DX003 (ip), vehicle: water 108 % of control

COc1ccc(OC)c(CCO)c1
inactive: [4] 93 % of control | [6] 98 % of control | [8] 91 % of control | [10] 93 % of control

COC(=O)C1=C(\N2CCOCC2)CCCCC/C=C\1C(=O)OC
inactive: [14] 94 % of control | [15] 91 % of control | [16] 89 % of control

Nc1nc2[nH]c(=O)cnc2c(=O)[nH]1
inactive: [5] 102 % of control | dose: 50.0 mg/kg/injection, schedule: Q04DX003 (ip), vehicle: Klucel (hydroxypropylcellulose) (HPC) 107 % of control | [18] 111 % of control | [7] 110 % of control | [19] 107 % of control | [9] 102 % of control | [20] 95 % of control | [11] 104 % of control

Cc1ccc2c(ccc3cc(C)ccc32)c1
inactive: [21] 122 % of control | [22] 101 % of control | [23] 97 % of control

CC1CN(Cc2ccccc2)C(=O)N(c2ccccc2)C1=O (stereo not given)
inactive: dose: 100.0 mg/kg/injection, schedule: Q01DX Z (ip), vehicle: methylcellulose (MC) 92 % of control

COc1ccc(/C=C/c2cnc3ccccc3n2)cc1OC
inactive: [18] 91 % of control | [7] 98 % of control | [19] 100 % of control | [9] 93 % of control | [20] 92 % of control | [11] 97 % of control

CC(C)C1=CC23CCC4C(C)(C(N)=O)CCCC4(C)C2CC1C1C(=O)NC(=O)C13 (stereo not given)
inactive: [7] 97 % of control | [9] 95 % of control | [11] 92 % of control

CCOC(=O)c1cc(N)c(N2CCCC2)cc1Cl
inactive: [14] 109 % of control | [12] 93 % of control | [15] 98 % of control | [13] 93 % of control | [16] 95 % of control | [17] 93 % of control

CCCC(=O)OC(OC(=O)CCC)c1ccco1
inactive: [1] 92 % of control | [2] 109 % of control | [3] 109 % of control

Cc1nccn1-c1ccc(Cl)cc1N=Cc1ccc(N(CCCl)CCCl)cc1Cl
inactive: [21] 95 % of control | [22] 95 % of control | [23] 106 % of control

Cc1ccc(S(=O)(=O)OCC2COC(C(Cl)(Cl)Cl)O2)cc1 (stereo not given)
inactive: [14] 94 % of control | [12] 106 % of control | [15] 92 % of control | [13] 113 % of control | [16] 94 % of control | [17] 110 % of control

O=C(O)c1cc(Br)c(C(=O)O)cc1Br
inactive: [1] 100 % of control | [2] 102 % of control | [3] 96 % of control

O=C(OC(=O)c1ccc([N+](=O)[O-])cc1)c1ccc([N+](=O)[O-])cc1
inactive: dose: 100.0 mg/kg/injection, schedule: Q01DX009 (sc), vehicle: olive oil, sesame oil, peanut oil 104 % of control | dose: 100.0 mg/kg/injection, schedule: Q04DX003 (sc), vehicle: olive oil, sesame oil, peanut oil 98 % of control | dose: 200.0 mg/kg/injection, schedule: Q01DX009 (sc), vehicle: olive oil, sesame oil, peanut oil 106 % of control | dose: 200.0 mg/kg/injection, schedule: Q04DX003 (sc), vehicle: olive oil, sesame oil, peanut oil 98 % of control | dose: 400.0 mg/kg/injection, schedule: Q01DX009 (sc), vehicle: olive oil, sesame oil, peanut oil 118 % of control | dose: 400.0 mg/kg/injection, schedule: Q04DX003 (sc), vehicle: olive oil, sesame oil, peanut oil 101 % of control

COc1cc2c(cc1OC)C(NC(C)C)CCCC2 (stereo not given)
inactive: [1] 98 % of control | [2] 95 % of control

O=C(N/N=C/c1cc(Cl)ccc1O)c1cccc2ccccc12
inactive: [1] 94 % of control | [2] 92 % of control | [3] 86 % of control
